From patent US20050124618A1, “Methods of modulating angiogenesis and cancer cell proliferation” (priority 2003, published 2005)
Entries after “also recorded” stand apart in the source; their conditions may differ.

How the values were obtained:
[1] = test system: HUVECs; experiment: HUVECs proliferation assay (CellTiter96 AQueous One); type: cell-based, human
Procedure: HUVECs were seeded onto a 96-well plate at 1×10^4 cells/well. […] Organic solvent concentration never exceeded 0.1% of total culture volume. […] 20 μl of Aqueous One reagent was added to the 100 μl medium in each well. The plates were incubated for 2 hours at 37° C. in a humidified incubator. Absorbance was recorded at 490 nm using a 96-well Bio Kinetics Reader EL340 (Bio-TEK, Winooski, Vt.). The data represent changes in percent absorbance of treated cultures compared with control cells. Three different experiments were carried out, and each point was determined in triplicate.

[2] = test system: 20-HETE; experiment: 20-HETE formation in electrically stimulated skeletal (TA) muscle of rats; type: in vivo, rat
Procedure: Experimental protocols and tissue preparation: After a 24-h recovery period, the implanted stimulator was activated by momentary closure of the magnetic reed switch using a small hand-held magnet. […] Contractions of the extensor digitorum longus (EDL) and tibialis anterior (TA) muscles were automatically initiated at 9 AM each day and sustained for 8 h/day over a consecutive 7-day period. At the end of the stimulation period, the animals were euthanized by an overdose of pentobarbital sodium (100 mg/kg ip), and the EDL and TA muscles were harvested for analysis as previously described (Greene A S et al., Hypertension 15: 779-783, 1990; and Parmentier J H et al., Hypertension 37: 623-629, 2001).
The rats were divided in four groups. […] This dose was chosen based on our previous results (Kehl F et al., Am J Physiol Heart Circ Physiol 282: H1556-H1565, 2002).
To determine the contribution of VEGF to the angiogenesis induced by electrical stimulation, six rats in group 3 were treated with 3 mg/kg ip injections of a monoclonal VEGF-neutralizing antibody (Texas Biotechnology; Houston, Tex.) during the period of electrical stimulation. The protocol for administration of VEGF-neutralizing antibody was modified from Zheng W et al. (Circ Res 85: 192-198, 1999), and this dose was based on our previous results (Amaral S L et al., Microcirculation 8: 57-67, 2001). After the stimulation period was started, the rats received intraperitoneal injections on days 3, 5, and 7 (0.6 mg/100 g).
Muscle preparations for measurement of 20-HETE: The 100-200 mg of frozen TA muscle were homogenized in a solution containing 1 ml of acidified water and 50 μl of an internal standard, WIT-002, which was synthesized and kindly provided by Taisho Pharmaceutical. Ethyl acetate (3 ml, Fisher Scientific; Pittsburgh, Pa.) was added to the mixture and gently vortexed. The homogenized tissues were then centrifuged at 3,000 revolutions/min for 2 min. With the use of a glass Pasteur pipet, the top layer was removed and transferred to a sterile glass vial, and the samples were dried under nitrogen and stored at −80° C.
Labeling of samples and fluorescent detection of 20-HETE: Detection of 20-HETE was performed as previously described (Ma Y H et al., Am J Physiol Regul Integr Comp Physiol 267: R579-R589, 1994). Samples, which were extracted and dried under argon, were resuspended in 20 μl of acetonitrile containing 36.4 mM 2-(2,3-napthalimino)ethyl trifluoromethanesulfonate, and N,N-diisopropylethylamine (10 μl) was added as a catalyst. The sample was reacted for 30 min at room temperature, dried under argon, resuspended in 1 ml of 40% acetonitrile-water, and applied to a Sep-Pak Vac column. The column was washed with 6 ml of 50% acetonitrile-water solution to remove unreacted dye, eluted with 500 μl of ethyl acetate, dried under argon, and resuspended in 100 μl of the HPLC mobile phase [methanol-water-acetic acid, 82:18:0.1 (vol/vol)]. A 25-μl aliquot of the derivatized sample was separated on a 4.6×250-mm Symmetry C18 reverse-phase HPLC column (Waters) isocratically at a rate of 1.3 ml/min using methanol-water-acetic acid (82:18:0.1 (vol/vol)) as the mobile phase. Fluorescence intensity monitored using an in-line fluorescence detector (model number L-7480, Hitachi; Naperville, Ill.) at medium gain sensitivity. The amount of 20-HETE in the sample was determined by comparing the area of the 20-HETE peak with that of the internal standard (WIT-002).

[3] = test system: phospho-tyrosine and phospho-Ser/Thr-Pro proteins; experiment: Western blot of tyrosine and serine/threonine protein phosphorylation in U251 cells; type: cell-based, human
Procedure: They were then pelleted by centrifugation at 1,000 g for 5 min at 4° C. Cells were lysed by adding RIPA buffer [20 mM HEPES (pH 7.4), 100 mM NaCl, 1% Nonidet P-40, 0.1% SDS, 1% deoxycholic acid, 10% glycerol, 1 mM EDTA, 1 mM NaVO3, 50 mM NaF, and Protease Inhibitors Set 1 (Calbiochem, La Jolla, Calif.)]. Plates were then scraped and cells collected in a 1.5-ml centrifuge tube, followed by incubation on ice for 30 min. Homogenates of the cell suspension were centrifuged for 10 min at 14,000 g and 4° C.; the pellets were discarded and protein concentrations in the supernatant determined by bicinchoninic acid (BCA) protein assay.
Typically, 20 μg of protein was separated on a 14% Tris-glycine gel (Invitrogen) and electroblotted on a PVDF membrane (Biotrace, Bothell, Wash.). Membranes were blocked for 1 h at room temperature with blocking buffer [0.2% I-Block reagent (Tropix, Bedford, Mass.), 0.1% Tween-20 in […]] before incubation with primary antibodies in blocking buffer (overnight at 4° C.). […] Both phospho-tyrosine (Y102) and phospho-serine/threonine-Pro MPM2 were detected using a 1:2000 dilution of the corresponding antibodies, whereas phospho-p44/p42MAPK and phospho-SAPK/JNK were detected using 1:1000 antibody dilutions. […]

CCCCc1ccc(N=CNO)c(C)c1 [HET0016, N-hydroxy-N′-(4-butyl-2 methylphenyl) formamidine]
effect on the proliferative response of HUVECs to VEGF ([1]; 250 ng/ml VEGF + 10 μM HET0016, 24 hours): abolished; also recorded: blocked the known proliferative response to VEGF; also recorded: blocks the mitogenic activity of VEGF | effect on basal proliferation rate of HUVECs ([1]; 10 μM HET0016): did not alter basal proliferation rate | effect on the increase of 20-HETE formation induced by electrical stimulation ([2]; 7 days of electrical stimulation, chronic treatment): completely blocked | 20-HETE formation in skeletal muscle, unstimulated side ([2]; rats treated 7 days, TA muscle): 110.26±28.36 ng/g muscle | 20-HETE formation in skeletal muscle, stimulated side ([2]; rats treated 7 days, TA muscle, 7 days electrical stimulation): 102.1±22.3 ng/g muscle | effect on basal formation of 20-HETE in skeletal muscle ([2]; treatment for 7 days): did not change the basal formation | serine/threonine phosphorylation of proteins ([3]; 10 μM HET0016): no significant changes | tyrosine phosphorylation of proteins ([3]; 10 μM HET0016, 24 and 48 hr): inhibition which was seen at 24 and 48 hr; also recorded: significant decreases at 24 and 48 hr
